According to article PMC6274554, “Synthetic Strategy and Anti-Tumor Activities of Macrocyclic Scaffolds Based on 4-Hydroxyproline” (Molecules, 2016):
Read-outs that look alike come from different tables or passages of the source.

How the values were obtained:
Format in all cases: cell-based, human
[1] = tested on: breast cancer cell line MDA-MB-231; test: MTT cytotoxicity assay, MDA-MB-231; settings: MDA-MB-231 cells, 8000 cells/well, 24 h incubation with compound, absorbance 490 nm, read-out: IC50 (μmol/L) MDA-MB-231
Excerpt: (§1) A small library derived from 6a–b, 9 and 10a–c was obtained by hydrolysis of the macrocycles and condensation with amines. The anti-tumor activities for lung cancer cell line A549, breast cancer cell line MDA-MB-231 and hepatocarcinoma cell line Hep G2 of all these new compounds were screened in vitro by an MTT assay. Most of the compounds show some inhibitory activities against A549, MDA-MB-231 and Hep G2. […] In the future, further structure–activity relationship studies will be performed to determine how the substituents affected the anti-tumor activity and to design the best chemical structure in the future.
(§2) The human lung cancer cell line A549, breast cancer cell line MDA-MB-231 and hepatocarcinoma cell line Hep G2 were cultured in Dulbecco’s modified Eagle’s medium (DMEM) supplemented with antibiotics (penicillin 50 U/mL; streptomycin 50 µg/mL) and 10% FCS. The incubation was at 37 °C in a humidified atmosphere of 5% CO2 in air before experiments. Cells were first seeded at a density of 8000 cells/well in a 96-well plate for 48 hours. Solutions containing respective concentrations of compounds were added into wells and incubation continued for another 24 hours. After that, the MTT (3-(4,5-dimethylthiazol-2-yl)-2,5-diphenyltetrazolium bromide) dye stock solution (10 μL, 5 mg/mL) was added to each well. After 4 h, the supernatant was removed and DMSO (100 μL) was added to solubilize the MTT. The absorbance was measured at a wave length of 490 nm (A490nm) on an ELISA microplate reader. Results were expressed as IC50 values.

[2] = tested on: lung cancer cell line A549; test: MTT cytotoxicity assay, A549; settings: A549 cells, 8000 cells/well, 24 h incubation with compound, absorbance 490 nm, read-out: IC50 (μmol/L) A549
Excerpt: as §1, §2

[3] = tested on: hepatocarcinoma cell line Hep G2; test: MTT cytotoxicity assay, Hep G2; settings: 8000 cells/well, 24 h incubation with compound, absorbance 490 nm, read-out: IC50 (μmol/L) Hep G2
Excerpt: as §1, §2

[4] = Homo sapiens, HepG2, Hep G2 cells

Row | Compound | IC50 ([1]; Homo sapiens) [µmol/L] | IC50 ([2]; Homo sapiens) [µmol/L] | IC50 [3, 4] [µmol/L] | IC50 [1] [µmol/L] | IC50 [2] [µmol/L] | IC50 ([3]; Hep G2 cells) [µmol/L]
1 | O=C(O)[C@@H]1C[C@@H]2CN1C(=O)c1cccc(c1)OCCCCCCO2 [Compound 42, (10R,12S)-14-Oxo-2,9-dioxa-13-aza-tricyclo[13.3.1.1^10,13]eicosane-1(19),15,17-triene-12-carboxylic acid] | > 100 | > 100 | 87.4 | – | – | –
2 | NC(=O)[C@@H]1C[C@@H]2CN1C(=O)c1cccc(c1)OC/C=C\CO2 [Compound 31, (4Z,8R,10S)-12-Oxo-2,7-dioxa-11-aza-tricyclo[11.3.1.1^8,11]octadecane-4,1(17),13,15-tetraene-10-carboxamide] | 12.3 | 5.21 | 31.9 | – | – | –
3 | O=C(Nc1ccccc1)[C@@H]1C[C@@H]2CN1C(=O)c1cccc(c1)OCCCCCO2 [Compound 40, (9R,11S)-13-Oxo-N-phenyl-2,8-dioxa-12-aza-tricyclo[12.3.1.1^9,12]nonadecane-1(18),14,16-triene-11-carboxamide] | 76.4 | 88 | 68.4 | – | – | –
4 | O=C(O)[C@@H]1C[C@@H]2CN1C(=O)c1cccc(c1)OCCn1cc(nn1)CO2 [Compound 22, (11R,13S)-15-Oxo-2,10-dioxa-5,6,7,14-tetraaza-tetracyclo[14.3.1.1^5,8.1^11,14]docosane-6,8(21),1(20),16,18-pentaene-13-carboxylic acid] | – | – | – | 45.1 | 32.2 | 44.2
5 | NC(=O)[C@@H]1C[C@@H]2CN1C(=O)c1cccc(c1)OCCn1cc(nn1)CO2 [Compound 23, (11R,13S)-15-Oxo-2,10-dioxa-5,6,7,14-tetraaza-tetracyclo[14.3.1.1^5,8.1^11,14]docosane-6,8(21),1(20),16,18-pentaene-13-carboxamide] | – | – | – | 29.9 | 26.8 | 37.3
6 | O=C(Nc1ccccc1)[C@@H]1C[C@@H]2CN1C(=O)c1cccc(c1)OCCn1cc(nn1)CO2 [Compound 24, (11R,13S)-15-Oxo-N-phenyl-2,10-dioxa-5,6,7,14-tetraaza-tetracyclo[14.3.1.1^5,8.1^11,14]docosane-6,8(21),1(20),16,18-pentaene-13-carboxamide] | – | – | – | 35.6 | 45.7 | 46.3
7 | O=C(O)[C@@H]1C[C@@H]2CN1C(=O)c1cccc(c1)OCCCCCO2 [Compound 38, (9R,11S)-13-Oxo-2,8-dioxa-12-aza-tricyclo[12.3.1.1^9,12]nonadecane-1(18),14,16-triene-11-carboxylic acid] | 92.3 | > 100 | > 100 | – | – | –
8 | CC(C)CNC(=O)[C@@H]1C[C@@H]2CN1C(=O)c1cccc(c1)OCCCCCCO2 [Compound 45, (10R,12S)-14-oxo-N-Isobutyl-2,9-dioxa-13-aza-tricyclo[13.3.1.1^10,13]eicosane-1(19),15,17-triene-12-carboxamide] | 88.7 | 93.6 | 89.6 | – | – | –
9 | NC(=O)[C@@H]1C[C@@H]2CN1C(=O)c1cccc(c1)OCCn1nncc1CO2 [Compound 27, (12R,14S)-16-Oxo-2,11-dioxa-5,6,7,15-tetraaza-tetracyclo[15.3.1.1^12,15.0^5,9]docosane-6,8,1(21),17,19-pentaene-14-carboxamide] | 28 | 41.3 | 34.7 | – | – | –
10 | CC(C)CNC(=O)[C@@H]1C[C@@H]2CN1C(=O)c1cccc(c1)OCCn1nncc1CO2 [Compound 29, (12R,14S)-16-Oxo-N-isobutyl-2,11-dioxa-5,6,7,15-tetraaza-tetracyclo[15.3.1.1^12,15.0^5,9]docosane-6,8,1(21),17,19-pentaene-14-carboxamide] | 43.2 | 32.2 | 37.3 | – | – | –
11 | O=C(Nc1ccccc1)[C@@H]1C[C@@H]2CN1C(=O)c1cccc(c1)OC/C=C\CO2 [Compound 32, (4Z,8R,10S)-12-Oxo-N-phenyl-2,7-dioxa-11-aza-tricyclo[11.3.1.1^8,11]octadecane-4,1(17),13,15-tetraene-10-carboxamide] | 9.67 | 4.76 | 26.3 | – | – | –
12 | NC(=O)[C@@H]1C[C@@H]2CN1C(=O)c1cccc(c1)OCCCCO2 [Compound 35, (8R,10S)-12-Oxo-2,7-dioxa-11-aza-tricyclo[11.3.1.1^8,11]octadecane-1(17),13,15-triene-10-carboxamide] | 90.5 | 89.5 | 91.5 | – | – | –
13 | CC(C)CNC(=O)[C@@H]1C[C@@H]2CN1C(=O)c1cccc(c1)OCCCCO2 [Compound 37, (8R,10S)-12-Oxo-N-isobutyl-2,7-dioxa-11-aza-tricyclo[11.3.1.1^8,11]octadecane-1(17),13,15-triene-10-carboxamide] | 86.3 | 77.9 | 73.1 | – | – | –
14 | CC(C)CNC(=O)[C@@H]1C[C@@H]2CN1C(=O)c1cccc(c1)OCCCCCO2 [Compound 41, (9R,11S)-13-Oxo-N-isobutyl-2,8-dioxa-12-aza-tricyclo[12.3.1.1^9,12]nonadecane-1(18),14,16-triene-11-carboxamide] | 47.3 | 34.9 | > 100 | – | – | –
15 | O=C(Nc1ccccc1)[C@@H]1C[C@@H]2CN1C(=O)c1cccc(c1)OCCCCO2 [Compound 36, (8R,10S)-12-Oxo-N-phenyl-2,7-dioxa-11-aza-tricyclo[11.3.1.1^8,11]octadecane-1(17),13,15-triene-10-carboxamide] | 85.3 | 54.3 | 95.4 | – | – | –
16 | O=C(O)[C@@H]1C[C@@H]2CN1C(=O)c1cccc(c1)OCCCCO2 [Compound 34, (8R,10S)-12-Oxo-2,7-dioxa-11-aza-tricyclo[11.3.1.1^8,11]octadecane-1(17),13,15-triene-10-carboxylic acid] | 96.2 | > 100 | 96.2 | – | – | –
17 | O=C(O)[C@@H]1C[C@@H]2CN1C(=O)c1cccc(c1)OCCn1nncc1CO2 [Compound 26, (12R,14S)-16-Oxo-2,11-dioxa-5,6,7,15-tetraaza-tetracyclo[15.3.1.1^12,15.0^5,9]docosane-6,8,1(21),17,19-pentaene-14-carboxylic acid] | 34.3 | 37.1 | 44.9 | – | – | –
18 | O=C(Nc1ccccc1)[C@@H]1C[C@@H]2CN1C(=O)c1cccc(c1)OCCn1nncc1CO2 [Compound 28, (12R,14S)-16-Oxo-N-phenyl-2,11-dioxa-5,6,7,15-tetraaza-tetracyclo[15.3.1.1^12,15.0^5,9]docosane-6,8,1(21),17,19-pentaene-14-carboxamide] | 43.7 | 46.3 | 36.3 | – | – | –
19 | O=C(Nc1ccccc1)[C@@H]1C[C@@H]2CN1C(=O)c1cccc(c1)OCCCCCCO2 [Compound 44, (10R,12S)-14-Oxo-N-phenyl-2,9-dioxa-13-aza-tricyclo[13.3.1.1^10,13]eicosane-1(19),15,17-triene-12-carboxamide] | 23.1 | 98.2 | 88.1 | – | – | –
20 | CC(C)CNC(=O)[C@@H]1C[C@@H]2CN1C(=O)c1cccc(c1)OC/C=C\CO2 [Compound 33, (4Z,8R,10S)-12-Oxo-N-isobutyl-2,7-dioxa-11-aza-tricyclo[11.3.1.1^8,11]octadecane-4,1(17),13,15-tetraene-10-carboxamide] | 11.9 | 2.55 | 41.1 | – | – | –
21 | O=C(O)[C@@H]1C[C@@H]2CN1C(=O)c1cccc(c1)OC/C=C\CO2 [Compound 30, (4Z,8R,10S)-12-Oxo-2,7-dioxa-11-aza-tricyclo[11.3.1.1^8,11]octadecane-4,1(17),13,15-tetraene-10-carboxylic acid] | 10.3 | 11.2 | 23.2 | – | – | –
22 | N.N.[Cl][Pt][Cl] [Cisplatin, reference compound] | – | – | – | 19.7 | 15.4 | 17.4
23 | NC(=O)[C@@H]1C[C@@H]2CN1C(=O)c1cccc(c1)OCCCCCO2 [Compound 39, (9R,11S)-13-Oxo-2,8-dioxa-12-aza-tricyclo[12.3.1.1^9,12]nonadecane-1(18),14,16-triene-11-carboxamide] | 57.3 | 63.7 | > 100 | – | – | –
24 | CC(C)CNC(=O)[C@@H]1C[C@@H]2CN1C(=O)c1cccc(c1)OCCn1cc(nn1)CO2 [Compound 25, (11R,13S)-15-Oxo-N-isobutyl-2,10-dioxa-5,6,7,14-tetraaza-tetracyclo[14.3.1.1^5,8.1^11,14]docosane-6,8(21),1(20),16,18-pentaene-13-carboxamide] | – | – | – | 42.5 | 37.7 | 48.3
